Assays:
[1] = test system: AsPC 1; assay: Cytotoxicity, propidium iodide assay, AsPC 1; assay type: cell-based; conditions: Homo sapiens, ASPC1; Pancreatic, AsPC 1, 48 hours treatment; read-out: IC50, C5b (AsPC 1)
Protocol: The assay was designed as in the reference, Anticancer Drugs, 2002, 13, 1-8, the disclosure of which is incorporated by reference for the teaching of the assay.
Cells from cell lines as mentioned in the table given below were seeded at a density of 3000 cells/well in a white opaque 96-well plate. Following incubation at 37° C./5% CO2 for a period of 18-24 hours, the cells were treated with various concentrations (stock solution was prepared in DMSO and subsequent dilutions were made in media as per ATCC guidelines) of the compounds of Example 1-40 was for a period of 48 hours. At the end of treatment, the spent culture medium was discarded, the cells were washed with 1×PBS and 200 μl of 7 μg/ml propidium iodide was added to each well. The plates were frozen at −70° C. for at least 24 hours. For analysis, the plates were brought to RT, allowed to thaw and were read in PoleStar fluorimeter with the fluorescence setting. The percentage of viable cells in the non-treated set of wells was considered to be 100 and the percentage viability following treatment was calculated accordingly. IC50 values were calculated from graphs plotted using these percentages. Table 4 depicts the IC50 values of compounds of Example 1-40 in individual cell lines.
The abbreviations for the Cell Lines as used in Table 4 are: […]

[2] = test system: OVCAR 3; assay: Cytotoxicity, propidium iodide assay, OVCAR 3; assay type: cell-based; conditions: Homo sapiens; Ovarian, OVCAR 3, 48 hours treatment; read-out: IC50, C3b (OVCAR 3)
Method in brief: (§1)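 Cells seeded at 3000 cells/well, incubated 18-24 hours at 37° C./5% CO2, then exposed to a range of compound concentrations for 48 hours. After a PBS wash, 7 μg/ml propidium iodide was added, plates frozen at −70° C. for at least 24 hours, thawed and read by fluorescence; IC50 from viability relative to untreated wells.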

[3] = test system: A549; assay: Cytotoxicity, propidium iodide assay, A549; assay type: cell-based; conditions: Homo sapiens; Lung, A549, 48 hours treatment; read-out: IC50, C1a (A549)
Method in brief: as §1

[4] = test system: U 373; assay: Cytotoxicity, propidium iodide assay, U 373; assay type: cell-based; conditions: Homo sapiens, U373 MG; Glioblastoma, U 373, 48 hours treatment; read-out: IC50, C7a (U 373)
Method in brief: as §1

[5] = test system: HCT116; assay: Cytotoxicity, propidium iodide assay, HCT116; assay type: cell-based; conditions: Homo sapiens, HCT-116; Colon, HCT116, 48 hours treatment; read-out: IC50, C4a (HCT116)
Method in brief: as §1

[6] = molecular target: T1, PI3Kα kinase (Homo sapiens, UniProt P42336); assay: PI3Kα assay (32P incorporation into phosphatidylinositol, TLC densitometry); assay type: biochemical; conditions: for inhibition at 0.1 µM: At 100 nM; for inhibition at 1 µM: At 1000 nM
T1 construct: purchased Millipore, USA
T1 sequence (P42336 whole entry): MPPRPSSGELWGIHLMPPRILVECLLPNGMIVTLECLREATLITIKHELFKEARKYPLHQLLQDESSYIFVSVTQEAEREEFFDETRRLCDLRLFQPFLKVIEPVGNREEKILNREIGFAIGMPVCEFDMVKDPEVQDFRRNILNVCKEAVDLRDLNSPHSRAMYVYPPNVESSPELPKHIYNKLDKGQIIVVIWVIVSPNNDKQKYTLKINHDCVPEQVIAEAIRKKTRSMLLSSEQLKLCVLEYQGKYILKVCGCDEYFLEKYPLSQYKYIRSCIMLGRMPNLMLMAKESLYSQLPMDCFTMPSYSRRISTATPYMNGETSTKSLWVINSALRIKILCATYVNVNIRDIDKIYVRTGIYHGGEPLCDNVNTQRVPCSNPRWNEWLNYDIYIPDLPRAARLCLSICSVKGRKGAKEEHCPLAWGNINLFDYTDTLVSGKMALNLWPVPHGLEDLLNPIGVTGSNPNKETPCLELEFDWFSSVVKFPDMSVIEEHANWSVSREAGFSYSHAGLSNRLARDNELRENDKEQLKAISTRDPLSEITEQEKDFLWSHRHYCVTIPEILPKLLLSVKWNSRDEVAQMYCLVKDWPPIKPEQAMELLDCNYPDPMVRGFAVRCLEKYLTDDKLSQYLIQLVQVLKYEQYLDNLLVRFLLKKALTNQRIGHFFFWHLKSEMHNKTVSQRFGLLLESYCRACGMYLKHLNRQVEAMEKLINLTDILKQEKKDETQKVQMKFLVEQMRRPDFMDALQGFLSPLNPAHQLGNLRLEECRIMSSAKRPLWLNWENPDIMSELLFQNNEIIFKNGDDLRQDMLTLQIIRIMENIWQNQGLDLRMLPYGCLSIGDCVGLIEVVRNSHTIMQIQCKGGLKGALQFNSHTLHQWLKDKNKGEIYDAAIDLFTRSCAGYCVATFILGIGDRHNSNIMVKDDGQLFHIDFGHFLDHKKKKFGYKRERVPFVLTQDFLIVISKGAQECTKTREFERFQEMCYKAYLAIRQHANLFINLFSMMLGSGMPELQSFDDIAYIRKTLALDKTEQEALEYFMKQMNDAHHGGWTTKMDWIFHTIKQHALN
T1 sequence (P27986 whole entry partner): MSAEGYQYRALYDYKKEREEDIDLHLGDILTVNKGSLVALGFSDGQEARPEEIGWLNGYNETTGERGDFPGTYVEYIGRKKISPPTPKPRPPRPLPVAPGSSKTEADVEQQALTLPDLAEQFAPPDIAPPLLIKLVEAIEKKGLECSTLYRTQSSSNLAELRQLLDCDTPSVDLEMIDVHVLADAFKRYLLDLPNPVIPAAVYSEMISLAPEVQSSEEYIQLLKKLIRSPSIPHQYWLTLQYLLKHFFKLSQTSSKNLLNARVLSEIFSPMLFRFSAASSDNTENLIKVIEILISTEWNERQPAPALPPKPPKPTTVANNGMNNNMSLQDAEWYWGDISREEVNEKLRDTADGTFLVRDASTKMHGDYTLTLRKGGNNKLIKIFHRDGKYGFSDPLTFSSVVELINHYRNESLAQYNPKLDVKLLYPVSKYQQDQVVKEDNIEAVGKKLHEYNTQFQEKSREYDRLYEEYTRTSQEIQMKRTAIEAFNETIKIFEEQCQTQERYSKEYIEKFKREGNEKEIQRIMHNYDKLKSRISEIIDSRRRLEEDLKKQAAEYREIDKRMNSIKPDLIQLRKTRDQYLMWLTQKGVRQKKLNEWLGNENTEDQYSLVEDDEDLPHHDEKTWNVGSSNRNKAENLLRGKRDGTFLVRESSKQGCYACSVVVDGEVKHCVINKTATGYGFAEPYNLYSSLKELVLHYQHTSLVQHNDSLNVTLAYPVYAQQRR
Method in brief: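 Human PI3Kα (20 ng) with 12.5 μg phosphatidylinositol, 10 μM ATP plus [γ-32P]ATP in 10 mM Hepes pH 7.5, 50 mM MgCl2; 20 min at 30° C. Lipids extracted in MeOH/chloroform, resolved by silica TLC, and 32P-labelled PI quantified by autoradiography densitometry.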

[7] = test system: colorectal cancer (cell line HCT116) tumor model; assay: In vivo efficacy, HCT116 xenograft model in SCID mice; conditions: 50 mpk oral, every day for 14 days
Protocol: In-vivo efficacy of the compounds of the present invention was tested in colorectal cancer (cell line HCT116) tumor model Animals were housed and cared for in accordance with the Guidelines in force published by CPCSEA (Committee for the Purpose of Control and Supervision of Experiments on Animals), Tamil Nadu, India. Procedures using laboratory animals were approved by the IAEC (Institutional Animal Ethics Committee) of the Research Center of Piramal Life Sciences Limited, Mumbai, India.
Compound storage: All the compounds including standard were stored at 4-8° C. in an amber colored bottle. The compounds in solutions were also maintained at 4-8° C. in a refrigerator. Sample for animal injection was made fresh everyday.
Dose preparation: Required compound was weighed and mixed with 0.5% (w/v) carboxymethyl cellulose (CMC) and triturated with Tween-20 (secundum artum) with gradual addition of water to make up the final concentration.
Efficacy study in SCID mice: Severely Combined Immune-Deficient (SCID strain-CBySmn.CB17-Prkdc^scid/J, The Jackson Laboratory, Stock #001803) male mice weighing about 20 g of 6-9 weeks old were used in the study.
HCT116 cells were grown in McCoy's 5A medium containing 10% fetal calf serum in 5% CO2 incubator at 37° C. Cells were pelleted by centrifugation at 1000-rpm for 10 minutes. Cells were resuspended in sterile 1×PBS to get a count of 25×10^6 cells per mL, 0.2 mL of this cell suspension (corresponding to 5×10^6 cells) was injected by subcutaneous (s.c.) route in SCID mice. Mice were observed every alternate day for palpable tumor mass. Once the tumor size reached a size of 5-7 mm in diameter, animals were randomized into respective treatment groups. Dose was administered every day for 14 days. Tumor size was recorded on every second day.
Tumor weight (mg) was estimated according to the formula for a prolate ellipsoid: {Length (mm)×[width (mm)^2]×0.5}assuming specific gravity to be one and π to be three.
Tumor growth in compound treated animals was calculated as T/C (Treated/Control)×100% and Growth inhibition Percent (GI %) was [100−T/C %]. […]

Row | SMILES | inhibition at 0.1 µM [6] | inhibition at 1 µM [6] | IC50 [1] | IC50 [2] | IC50 [3] | IC50 [4] | IC50 [5] | % growth inhibition on 14th day [7]
1 | C/C=C/C(=O)n1c(=O)n(-c2ccc(C(C)(C)C#N)cc2)c2c3cc(Br)ccc3ncc21 [Example 27, (E)-2-(4-(8-Bromo-3-but-2-enoyl-2-oxo-2,3-dihydro-1H-imidazo[4,5-c]quinolin-1-yl)phenyl)-2-methylpropanenitrile] |  | 10 to 50% | ≤ 1000 nM | ≤ 1000 nM | ≤ 1000 nM |  | 1000 to 3000 nM | 36%
2 | CC(C)(C#N)c1ccc(-n2c(=O)n(C(=O)c3ccccc3)c3cnc4ccc(Br)cc4c32)cc1 [Example 30, 2-(4-(3-Benzoyl-8-bromo-2-oxo-2,3-dihydro-1H-imidazo[4,5-c]quinolin-1-yl)phenyl)-2-methylpropanenitrile] | > 50% |  | 1000 to 3000 nM | ≤ 1000 nM | 1000 to 3000 nM | ≤ 1000 nM | ≤ 1000 nM | 35%

Second part, led by results:

Row | inhibition at 0.1 µM [6] | inhibition at 1 µM [6] | SMILES | IC50 [1] | IC50 [2] | IC50 [3] | IC50 [4] | IC50 [5] | % growth inhibition on 14th day [7]
3 | 10 to 50% |  | Cc1cccc(S(=O)(=O)n2c(=O)n(-c3ccc(C(C)(C)C#N)cc3)c3c4cc(Br)ccc4ncc32)c1 [Example 3, 2-(4-(8-Bromo-2-oxo-3-(m-tolylsulfonyl)-2,3-dihydro-1H-imidazo[4,5-c]quinolin-1-yl)phenyl)-2-methylpropanenitrile] | 1000 to 3000 nM | 1000 to 3000 nM | 1000 to 3000 nM | > 3000 nM | 1000 to 3000 nM | 
4 | 10 to 50% |  | CC(C)(C#N)c1ccc(-n2c(=O)n(C(=O)c3ccccc3)c3cnc4ccc(Cl)cc4c32)cc1 [Example 37, 2-(4-(3-Benzoyl-8-chloro-2-oxo-2,3-dihydro-1H-imidazo[4,5-c]quinolin-1-yl)phenyl)-2-methylpropanenitrile] |  | 1000 to 3000 nM | 1000 to 3000 nM | > 3000 nM | > 3000 nM | 
5 |  | 10 to 50% | C/C=C/C(=O)n1c(=O)n(-c2ccc(C(C)(C)C#N)cc2)c2c3cc(Cl)ccc3ncc21 [Example 38, (E)-2-(4-(3-But-2-enoyl-8-chloro-2-oxo-2,3-dihydro-1H-imidazo[4,5-c]quinolin-1-yl)phenyl)-2-methylpropanenitrile] | ≤ 1000 nM | ≤ 1000 nM | ≤ 1000 nM |  | > 3000 nM | 17%
